From US12281123B2, “Benzoxazinone compounds as KLK5/7 dual inhibitors” (MOLECULAR SKIN THERAPEUTICS, INC., priority 2019, dated 2025)
Where “and” joins values, the source holds several entries; their conditions need not be identical. Equal entries are not always repeated.

How the values were obtained:
Assay type in all cases: biochemical
[1] = molecular target: T1, KLK14 (Homo sapiens, UniProt Q9P0G3); assay: Chromogenic assay, KLK14; conditions: S-2288 500 μM, highest conc. of 1.001 50 μM
T1 construct: purchased R&D Biosystems (Minneapolis, MN) / R&Dsystems; host or cells: mouse myeloma cells
T1 sequence (Q9P0G3 25-251): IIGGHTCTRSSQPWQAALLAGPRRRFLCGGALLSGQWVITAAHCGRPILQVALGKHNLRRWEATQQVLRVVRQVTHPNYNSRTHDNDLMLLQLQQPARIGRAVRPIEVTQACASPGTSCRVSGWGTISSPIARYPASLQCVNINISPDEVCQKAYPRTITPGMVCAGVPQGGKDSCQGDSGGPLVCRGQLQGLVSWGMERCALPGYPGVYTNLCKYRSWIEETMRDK
Excerpt: (§1) Human Kallikrein Proteins: Recombinant human KLK5 expressed in HEK293 was obtained from SpeedBio (Gaithersburg, MD). Recombinant proenzyme KLK-7 and recombinant proenzyme KLK-14 both expressed in mouse myeloma cells were from R&D Biosystems (Minneapolis, MN). Plasmin and thrombin were from Haematologic Technologies (Essex Junction, VT). Trypsin and Chymotrypsin were bought from Worthington Biochemical Corporation (Lakewood, NJ) and plasma kallikrein was from Prospec (East Brunswick, NJ). Neutrophil Elastase was obtained from Innovative Research (Peary Court, MI). Bovine recombinant enterokinase expressed in E. coli was bought from Sigma (St. Louis, MI). Matriptase expressed in E. coli was obtained from Enzo Life Sciences (Farmingdale, NY). The control inhibitors Nafamostat mesylate was from Sigma (St. Louis, MI) and (2-(2-fluorophenyl)-5,6,7,8-tetrahydro-4H-benzo[4,5]thieno[2,3-d][1,3]oxazin-4-one was from Interbioscreen (Moskow, Russia).
Substrates: S-2288 (D-Ile-Pro-Arg-pNA), CS-PSA (MeO-Suc-Arg-Pro-Tyr-pNA), S-2266 (H-D-Val-Leu-Arg-pNA) and S-2288 (H-D-Ile-Pro-Arg-pNA) were bought from Diapharma (West Chester, OH). MeOSuccAla-Ala-Pro-Val-pNA was purchased from Sigma (St Louis, MI). The substrates were dissolved in water at 10 mM and were frozen in aliquots at −20° C.
Activation of KLK-7 and KLK-14: 150 μL 8 μM solution of the proenzymes of KLK-7 or KLK-14 in 50 mM Tris, 10 mM CaCl2, 150 mM NaCl, 0.05% (w/v) Brij-35, pH 7.5 were mixed with 150 μL 10 μg/mL bovine enterokinase in the same buffer and incubated for 2 h for KLK-7 and 1 h for KLK-14 at 37° C. After the incubation period, activation was stopped by addition of 6 μL 0.5 M EDTA pH 8.0.
Assays: All assays were performed in 384 well polystyrene plates coated overnight with 0.1% Tween 20 at 4° C. The plates were then washed twice with 100 μL water and dried. […] The assays were monitored at 37° C. in a multi well plate reader at a wavelength of 405 nm (Molecular Devices, San Jose, CA) for 1 h. […]
(§2) Data analysis: The progress curves of substrate hydrolysis were analyzed by linear regression of the final 20 min of the reaction. […]

[2] = molecular target: T2, Neutrophil Elastase (Homo sapiens, UniProt P08246); assay: Chromogenic assay, neutrophil elastase; conditions: Neutrophil Elastase 0.5 nM; Elastase substrate 1 200 μM; highest conc. of 1.001 100 μM
T2 sequence (P08246 30-267): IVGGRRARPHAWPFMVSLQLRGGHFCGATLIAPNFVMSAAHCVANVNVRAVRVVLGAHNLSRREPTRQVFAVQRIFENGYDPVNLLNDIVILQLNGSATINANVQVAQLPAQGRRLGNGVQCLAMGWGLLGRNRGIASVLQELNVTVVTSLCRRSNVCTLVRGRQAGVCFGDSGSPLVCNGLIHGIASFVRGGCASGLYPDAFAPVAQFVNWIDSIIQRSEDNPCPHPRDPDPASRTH
Excerpt: as §1, with “Russia). […]” for “Russia).”
Assays: All assays were performed in 384 well polystyrene plates coated overnight with 0.1% Tween 20 at 4° C. […] The assays were monitored at 37° C. in a multi well plate reader at a wavelength of 405 nm (Molecular Devices, San Jose, CA) for 1 h. […]
as §2

[3] = molecular target: T3, Factor Xa (Homo sapiens, UniProt P00742); assay: Chromogenic assay, Factor Xa; conditions: Factor Xa 0.5 nM; S-2288 500 μM; highest conc. of 1.001 20 μM
T3 construct: purchased Haematologic Technologies
T3 sequence (P00742 235-488 limits assumed): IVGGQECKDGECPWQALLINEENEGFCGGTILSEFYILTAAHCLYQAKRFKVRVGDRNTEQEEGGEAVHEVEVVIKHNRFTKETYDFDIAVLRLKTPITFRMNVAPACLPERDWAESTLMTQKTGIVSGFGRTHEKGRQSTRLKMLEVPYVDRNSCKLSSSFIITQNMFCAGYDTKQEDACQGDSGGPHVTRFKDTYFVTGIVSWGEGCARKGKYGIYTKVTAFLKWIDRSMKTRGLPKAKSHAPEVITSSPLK
T3 sequence (P00742 41-179 partner limits assumed): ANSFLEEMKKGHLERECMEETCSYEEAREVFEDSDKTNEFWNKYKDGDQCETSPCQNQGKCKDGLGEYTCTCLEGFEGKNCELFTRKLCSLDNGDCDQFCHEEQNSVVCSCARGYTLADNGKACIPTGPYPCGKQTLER
Protocol: Assays: All assays were performed in 384 well polystyrene plates coated overnight with 0.1% Tween 20 at 4° C. The plates were then washed twice with 100 μL water and dried. For the determination of IC50 values, the inhibitors were diluted in serial dilutions of 1:3 intervals into pure DMSO at 50 fold of the intended final concentrations in the assays. Usually eight inhibitor dilutions and one DMSO control were prepared. The substrates were diluted into water at 2.2-fold the final concentration in the assay mixture. The wells of the plate were filled with 50 μL of the enzyme diluted in 2× assay buffer (100 mM Tris, 200 mM NaCl, 0.2% PEG, 0.01% Tween, 2 mM EDTA, pH 8.0) at twofold the intended concentration. Then 5 μL DMSO, 2.2 μL inhibitor and 45 μL substrate were added to start the reaction. The assays were monitored at 37° C. in a multi well plate reader at a wavelength of 405 nm (Molecular Devices, San Jose, CA) for 1 h. The tool inhibitor, nafamostat, was used as a control for trypsin, thrombin, KLK-5 and KLK-14 at 10 μM maximal concentration and (2-(2-fluorophenyl)-5,6,7,8-tetrahydro-4H-benzo[4,5]thieno[2,3-d][1,3]oxazin-4-one for KLK-7 at 5 μM.
Data analysis: The progress curves of substrate hydrolysis were analyzed by linear regression of the final 20 min of the reaction. Fit of the dose response of the resulting rates to the following equation yielded the IC50: […]

IC50 ([1]; KLK14 1 nM) | IC50 ([1]; KLK14 5 nM) | IC50 [3] | SMILES | IC50 [2] | IC50 (μM), KLK14 ([1]; KLK14 5 nM) | IC50 (μM), Factor Xa [3]
0.442 µM | 0.633 µM | 3.22 µM and 10.4 µM and 3.94 µM | CS(=O)(=O)c1cc(CO)ccc1-c1nc2cc3c(cc2c(=O)o1)OCCO3 [Compound 1.001, 2-(4-(Hydroxymethyl)-2-(methylsulfonyl)phenyl)-7,8-dihydro-4H-[1,4]dioxino[2′,3′:4,5]benzo[1,2-d][1,3]oxazin-4-one] | > 50 µM | – | –
– | – | – | CS(=O)(=O)c1cc(CO)ccc1C(=O)Nc1cc2c(cc1C(=O)O)OCCO2 [Compound 408, reference compound] | > 500 µM | No inhibition | No inhibition
